For assay [1], the target named is T1, canine plasmin (Canis lupus familiaris, UniProt P80009).
T1 construct: purchased Molecular Innovation, Novi, MI DPLM
The assay can be described thus: Plasmin inhibition assay (microplate-based colorimetric kinetic assay). In kind it is biochemical. The following applies: substrate D-VLK-pNA, 37° C., preliminary studies, FIG. 1, read-out: IC50, concentration-dependent inhibition of plasmin activity. How it is done: A microplate-based colorimetric kinetic assay was developed and validated to measure the potency of inhibition of canine plasmin by plasma based on a previously published method. Briefly, 2 μL of canine plasma diluted to 50 μL in phosphate-buffered saline (PBS) was added on ice to 96-well UV clear nonbinding plates (Cat. #655901, Greiner Bio-One, Monroe, NC). Then, 50 μL of canine plasmin (Cat. #DPLM, Molecular Innovation, Novi, MI) at 100 nM concentration in 50 μL PBS was added, mixed by pipetting, and incubated at 37° C. for 5 min. To this, 100 μL of prewarmed plasmin substrate (D-VLK-pNA, Molecular Innovation, Novi, MI) at 200 μM concentration in PBS was added, mixed, and immediately placed in a colorimetric plate reader (SpectraMax i3, Molecular Devices, San Jose, CA) set at 37° C. Absorbance at 405 nm was then monitored in each well over the next 5 minutes. Plasmin hydrolysis activity for each well was calculated from the fitted linear slope of the absorbance versus time curve over 5 minutes.
Preliminary studies confirmed concentration-dependent inhibition of plasmin activity by the antifibrinolytic aprotinin (Cat. #A1153, Sigma Aldrich, St Louis, MO) with an IC50 of approximately 500 nM (see FIG. 1). Plasma collected in sodium citrate and pooled from 2 male and 2 female beagle dogs was obtained from a commercial vendor (Biochemed Services, Winchester, VA). […]

Assay [2] relates to delayed postoperative bleeding in Scottish deerhounds. As to the kind of experiment: Scottish deerhound cases with delayed postoperative bleeding (health survey and veterinary records). In kind it is in vivo, Scottish deerhound dogs. The following applies: for hematocrit and platelet counts: SDH-2, 750 mg intravenous infusion; for hematocrit: SDH-4, continuous intravenous infusion plus transfusions of whole blood and plasma. An excerpt: For the instant example, Scottish deerhounds with delayed postoperative bleeding and matched controls were identified through a survey distributed to members of the Scottish Deerhound Club of America. A subsection of this survey requested information regarding the surgical history of the dogs, occurrence of postoperative bleeding complications, and perioperative administration of antifibrinolytic drugs (EACA or tranexamic acid). A diagnosis of delayed postoperative bleeding, defined as unexpected bleeding from a surgical wound starting 1 to 4 days after the procedure, was based on review of the owner's description of the event, the veterinary medical record (if available), and therapeutic response to administration of antifibrinolytic drugs (if used). Dogs were excluded if the bleeding event occurred on the same day of surgery, or after more than 4 days following surgery.
The instant example utilizes the methods described in Example 1 to identify delayed postoperative bleeding cases in canines and controls. Completed health surveys from the owners of 260 Scottish deerhounds were reviewed to identify delayed postoperative bleeding cases and controls. Of the original 260 dogs evaluated, 105 dogs (40%) were identified that had undergone at least one surgical procedure, while 21 dogs (8%) had received two or more surgeries. Nine of 105 dogs (9%) with a surgical history were reported to have experienced postoperative bleeding and/or excessive bruising at least once after a surgical procedure. Of these, bleeding into the abdomen was first diagnosed within 8 hours after surgery in two dogs, while bleeding and/or bruising was not evident until at least the morning after surgery in the remaining 7 dogs. These latter 7 dogs were considered delayed postoperative bleeding cases and all had DNA samples available for case-control analysis. Of the 96 dogs that had undergone surgery without evidence for postoperative bleeding, 25 dogs (26%) had received prophylactic treatment with EACA, while 71 dogs (74%) had not received any antifibrinolytic drug. These latter 71 dogs were considered delayed postoperative bleeding controls. Of the 71 control dogs, 55 dogs had DNA samples available for case-control genetic analysis.
Case information for the seven dogs (SDH-1 to SDH-7) that met the inclusion/exclusion criteria for delayed postoperative bleeding are shown in Table 1.

In assay [3] the test system is delayed postoperative bleeding in greyhounds. The following applies: 46 greyhounds, limb amputation for osteosarcoma, after introduction of the prophylactic treatment; cited from earlier work.
Where [4] appears, read: SDH-2, Day 1-evening (after aminocaproic acid), 750 mg intravenous infusion.
The mark [5] stands for this setting: prophylactic antifibrinolytic given, individual dogs SDH-3 and SDH-6.

T1 sequence (P80009 104-333 limits assumed): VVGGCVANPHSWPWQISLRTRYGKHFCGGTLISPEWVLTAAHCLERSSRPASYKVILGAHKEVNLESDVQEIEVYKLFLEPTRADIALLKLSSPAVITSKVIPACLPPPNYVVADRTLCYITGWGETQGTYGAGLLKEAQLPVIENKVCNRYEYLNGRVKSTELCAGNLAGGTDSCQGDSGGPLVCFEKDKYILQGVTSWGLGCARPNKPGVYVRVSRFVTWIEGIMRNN
T1 sequence (P80009 with tags, fused parts or gaps partner limits assumed): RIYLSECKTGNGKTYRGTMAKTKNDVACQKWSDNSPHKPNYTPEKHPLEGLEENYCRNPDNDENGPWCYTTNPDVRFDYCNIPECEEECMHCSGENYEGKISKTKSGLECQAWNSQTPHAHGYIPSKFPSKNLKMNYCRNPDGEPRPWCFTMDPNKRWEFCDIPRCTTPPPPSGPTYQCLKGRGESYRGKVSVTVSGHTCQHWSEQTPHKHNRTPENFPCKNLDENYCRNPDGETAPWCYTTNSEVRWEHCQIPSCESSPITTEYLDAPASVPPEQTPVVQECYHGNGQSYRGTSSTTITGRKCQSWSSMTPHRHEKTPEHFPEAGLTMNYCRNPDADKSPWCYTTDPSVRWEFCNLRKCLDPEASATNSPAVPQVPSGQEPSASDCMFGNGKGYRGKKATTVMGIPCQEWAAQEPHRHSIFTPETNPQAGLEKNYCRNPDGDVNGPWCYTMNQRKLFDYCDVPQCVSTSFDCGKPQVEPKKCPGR

Consider aprotinin, for which the IC50 in assay [1] was around 500 nM.

Turning to `NCCCCCC(=O)O` [EACA, 6-aminohexanoic acid], the “hematocrit and platelet counts” value is on record as “within their normal range” in assay [2] (by Day 5) and “significantly increased” in assay [2] (next morning (Day 2)). The “Hematocrit (%)” value is 34.4% in assay [2] (setting [4]); 41.7% in assay [2] (SDH-2, Day 2); 51.9% in assay [2] (SDH-2, Day 5); 50.4% in assay [2] (SDH-2, Week 5). Also, the “Platelet count (×10^9/L)” value in assay [2] (setting [4]) is 31 ×10^9/L; in assay [2] (SDH-2, Day 2), 125 ×10^9/L; in assay [2] (SDH-2, Day 5), 371 ×10^9/L; in assay [2] (SDH-2, Week 5), 276 ×10^9/L. The “bleeding after therapeutic treatment” value in assay [2] (SDH-3, castration, 500 mg orally every 8 hours for 5 days, with fluids, antibiotics, vitamin K) is given as “No further bleeding was observed”; in assay [2] (SDH-6, sebaceous cyst removal, orally administered after bleeding), “the bleeding resolved”. Besides, the “bruising or delayed postoperative bleeding after prophylactic treatment” value in assay [2] (SDH-3, splenectomy, 500 mg intravenous infusion during procedure then 500 mg oral every 8 hours for 5 days) was “No excessive bruising or delayed postoperative bleeding were observed”. Further, the hematocrit in assay [2] (after one month) is 60%; in assay [2] (at discharge after 5 days (15% before)) it was 36%. For the same compound, in assay [2] (SDH-6, skin abscess surgery, pre-operative oral dose), the “postoperative bleeding or bruising after prophylactic treatment” value was “No postoperative bleeding or bruising was observed”. The “bleeding after drug administration” value in assay [2] (dogs with delayed postoperative bleeding, EACA oral or injectable) is on record as “stopped within hours”. Also, the “Delayed bleeding?” value in assay [2] (setting [5]) was “No”. Besides, the Outcome entry in assay [2] (setting [5]) is given as “No complications”; in assay [2] (therapeutic antifibrinolytic given after delayed bleeding, individual dogs SDH-2 to SDH-6) it was “Responded to antifibrinolytic”. The incidence of bleeding in assay [3] was 16%.

Values taken from US20240060133A1, “METHODS FOR IDENTIFICATION AND TREATMENT OF BLEEDING IN ANIMALS” (WASHINGTON STATE UNIVERSITY, priority 2021, published 2024).
